Laboratory results from patent US20260240784A1, “PHARMACEUTICAL COMPOSITIONS WITH IMPROVED DISSOLUTION” (Applied Materials, Inc., priority 2023, published 2026).
Read-outs that look alike come from different tables or passages of the source.

What was measured:
[1] = In vivo pharmacokinetic study in Beagle dogs; details: dog, Beagle dogs (n=6)
[2] = in vivo; details: Wistar, rat, po

- AUC(0-t) ([1]; read-out: AUC0-t, Arithmetic Mean): 8690 ng·h/mL
- AUC(0-t) ([1]; read-out: AUC0-t, Geometric Mean): 7800 ng·h/mL
- Cmax ([1]; read-out: Cmax, Arithmetic Mean): 497 ng/mL
- Cmax ([1]; read-out: Cmax, Geometric Mean): 430 ng/mL
- AUC [2]: 149000 ng·h/mL
- Cmax [2]: 12000 ng/mL
- Tmax [2]: 4 h
SMILES: CC(C)OC(=O)C(C)(C)Oc1ccc(C(=O)c2ccc(Cl)cc2)cc1 [uncoated particles, fenofibrate]
